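GI50 marks 50% less growth. TGI is the concentration that stops growth completely.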
Legend:
Experiment in all cases: inhibition of tumour cell growth, NCI panel, 384-well format
SK-MEL-2 melanoma = system: SK-MEL-2 melanoma
ACHN renal = system: ACHN renal
DU-145 prostate = system: DU-145 prostate
A549 NSCLC = system: A549 NSCLC
MDA-MB-435 melanoma = system: MDA-MB-435 melanoma
NCI-H460 NSCLC = system: NCI-H460 NSCLC
RXF 393 renal = system: RXF 393 renal
SK-MEL-28 melanoma = system: SK-MEL-28 melanoma
UO-31 renal = system: UO-31 renal
A498 renal = system: A498 renal
SF-268 CNS = system: SF-268 CNS
786-0 renal = system: 786-0 renal
UACC-62 melanoma = system: UACC-62 melanoma

## CC[C@H](NC(=O)[C@H](CS(=O)(=O)CC1CC1)N[C@@H](c1ccc(F)cc1)C(F)(F)F)C(=O)C(=O)NC1CC1
SK-MEL-2 melanoma
  GI50: > 100 µM
  TGI: > 100 µM
ACHN renal
  GI50: > 100 µM
  TGI: > 100 µM
DU-145 prostate
  GI50: > 100 µM
  TGI: > 100 µM
A549 NSCLC
  GI50: > 100 µM
  TGI: > 100 µM
MDA-MB-435 melanoma
  GI50: > 100 µM
  TGI: > 100 µM
NCI-H460 NSCLC
  GI50: > 100 µM
  TGI: > 100 µM
RXF 393 renal
  GI50: > 88.2 µM
  TGI: > 100 µM
SK-MEL-28 melanoma
  GI50: > 100 µM
  TGI: > 100 µM
UO-31 renal
  GI50: > 100 µM
  TGI: > 100 µM
A498 renal
  GI50: > 100 µM
  TGI: > 100 µM
SF-268 CNS
  GI50: > 51.4 µM
  TGI: > 93.9 µM
786-0 renal
  GI50: > 100 µM
  TGI: > 100 µM
UACC-62 melanoma
  GI50: > 100 µM
  TGI: > 100 µM

Reference: PubChem BioAssay (NCI)
